Data from ChEMBL document CHEMBL1629666, “Quinolone resistance in Neisseria gonorrhoeae: rapid genotyping of quinolone resistance-determining regions in gyrA and parC genes by melting curve analysis predicts susceptibility” (2009).
Converted amounts (≈) assume the structure as drawn.

Legend:
Neisseria gonorrhoeae [1] = assay: Antimicrobial activity against Neisseria gonorrhoeae isolate IPC-NG6 harboring gyrA S91F, D95Y and parC E91G mutant gene by Etest
Neisseria gonorrhoeae [2] = assay: Antimicrobial activity against Neisseria gonorrhoeae isolate IPC-NG5 harboring gyrA S91F, D95A and parC E91G mutant gene by Etest
Neisseria gonorrhoeae [3] = assay: Antimicrobial activity against Neisseria gonorrhoeae isolate IPC-NG2 harboring gyrA S91F, D95Y and parC E91G mutant gene by Etest
Neisseria gonorrhoeae [4] = assay: Antimicrobial activity against Neisseria gonorrhoeae isolate IPC-NG1 harboring gyrA S91F, D95Y and parC E91G mutant gene by Etest
Neisseria gonorrhoeae [5] = assay: Antimicrobial activity against Neisseria gonorrhoeae isolate IPC-NG9 harboring gyrA S91F, D95A and parC S87N and E91Q mutant gene by Etest
Neisseria gonorrhoeae [6] = assay: Antimicrobial activity against Neisseria gonorrhoeae isolate IPC-NG13 harboring gyrA S91F, D95A and parC S87N and E91Q mutant gene by Etest
Neisseria gonorrhoeae [7] = assay: Antimicrobial activity against Neisseria gonorrhoeae isolate IPC-NG14 harboring gyrA S91F and D95A mutant gene by Etest
Neisseria gonorrhoeae [8] = assay: Antimicrobial activity against Neisseria gonorrhoeae isolate IPC-NG3 harboring gyrA S91F and D95A mutant gene by Etest
Neisseria gonorrhoeae [9] = assay: Antimicrobial activity against Neisseria gonorrhoeae isolate IPC-NG8 by Etest
Neisseria gonorrhoeae [10] = assay: Antimicrobial activity against Neisseria gonorrhoeae isolate IPC-NG16 harboring gyrA S91F, D95A and parC S87R mutant gene by Etest
Neisseria gonorrhoeae [11] = assay: Antimicrobial activity against Neisseria gonorrhoeae 95G0142 harboring gyrA S91F, D95N and parC S87R mutant gene by Etest
Neisseria gonorrhoeae [12] = assay: Antimicrobial activity against Neisseria gonorrhoeae WHO. L harboring gyrA S91F, D95N and parC D86N and S88P mutant gene by Etest
Neisseria gonorrhoeae [13] = assay: Antimicrobial activity against Neisseria gonorrhoeae 98G0872 harboring gyrA S91F, D95N and parC E91K mutant gene by Etest
Neisseria gonorrhoeae [14] = assay: Antimicrobial activity against Neisseria gonorrhoeae 98G0867 harboring gyrA S91F, D95G and parC S87R mutant gene by Etest
Neisseria gonorrhoeae [15] = assay: Antimicrobial activity against Neisseria gonorrhoeae WHO. M harboring gyrA S91F and D95G mutant gene by Etest
Neisseria gonorrhoeae [16] = assay: Antimicrobial activity against Neisseria gonorrhoeae 97G0109 harboring gyrA S91F, D95G and parC D86N mutant gene by Etest
Neisseria gonorrhoeae [17] = assay: Antimicrobial activity against Neisseria gonorrhoeae 97G0398 harboring gyrA S91F, D95G and parC S88P mutant gene by Etest
Neisseria gonorrhoeae [18] = assay: Antimicrobial activity against Neisseria gonorrhoeae 96G0142 harboring gyrA S91Y and parC E91Q mutant gene by Etest
Neisseria gonorrhoeae [19] = assay: Antimicrobial activity against Neisseria gonorrhoeae 98G0798 harboring gyrA S91F mutant gene by Etest
Neisseria gonorrhoeae [20] = assay: Antimicrobial activity against Neisseria gonorrhoeae 91G0316 harboring gyrA S91F mutant gene by Etest
Neisseria gonorrhoeae [21] = assay: Antimicrobial activity against Neisseria gonorrhoeae 07 QA 06 harboring gyrA S91F mutant gene by Etest
Neisseria gonorrhoeae [22] = assay: Antimicrobial activity against Neisseria gonorrhoeae 98G0959 harboring gyrA D95N mutant gene by Etest
Neisseria gonorrhoeae [23] = assay: Antimicrobial activity against Neisseria gonorrhoeae WHO. G harboring gyrA S91F mutant gene by Etest
Neisseria gonorrhoeae [24] = assay: Antimicrobial activity against Neisseria gonorrhoeae 91G0622 harboring gyrA D95N mutant gene by Etest
Neisseria gonorrhoeae [25] = assay: Antimicrobial activity against Neisseria gonorrhoeae 97G0319 harboring gyrA D95G mutant gene by Etest
Neisseria gonorrhoeae [26] = assay: Antimicrobial activity against Neisseria gonorrhoeae 93G0065 harboring gyrA D95N mutant gene by Etest
Neisseria gonorrhoeae [27] = assay: Antimicrobial activity against Neisseria gonorrhoeae 07 QA 02 by Etest
Neisseria gonorrhoeae [28] = assay: Antimicrobial activity against Neisseria gonorrhoeae WHO. C by Etest
Neisseria gonorrhoeae [29] = assay: Antimicrobial activity against Neisseria gonorrhoeae WHO. P by Etest
Neisseria gonorrhoeae [30] = assay: Antimicrobial activity against Neisseria gonorrhoeae WHO. O by Etest
Neisseria gonorrhoeae [31] = assay: Antimicrobial activity against Neisseria gonorrhoeae 92G0551 harboring gyrA S91Y mutant gene by Etest
Neisseria gonorrhoeae [32] = assay: Antimicrobial activity against Neisseria gonorrhoeae isolate IPC-NG7 harboring gyrA S91F, D95G and parC S87N and E91Q mutant gene by Etest
Neisseria gonorrhoeae [33] = assay: Antimicrobial activity against Neisseria gonorrhoeae isolate IPC-NG10 harboring gyrA S91F, D95G and parC S87R mutant gene by Etest
Neisseria gonorrhoeae [34] = assay: Antimicrobial activity against Neisseria gonorrhoeae isolate IPC-NG18 harboring gyrA S91F, D95A and parC S87N mutant gene by Etest
Neisseria gonorrhoeae [35] = assay: Antimicrobial activity against Neisseria gonorrhoeae isolate IPC-NG19 harboring gyrA S91F, D95A and parC S87N mutant gene by Etest
Neisseria gonorrhoeae [36] = assay: microbe, parasite or virus in culture; details: isolate 108 175 340
Description: Antimicrobial activity against Neisseria gonorrhoeae isolate 108 175 340 harboring gyrA S91F, D95G and parC E91G mutant gene by Etest

O=C(O)c1cn(C2CC2)c2cc(N3CCNCC3)c(F)cc2c1=O [CIPROFLOXACIN]
MIC (Neisseria gonorrhoeae [1]): > 32 µg/mL | MIC (Neisseria gonorrhoeae [2]): > 32 µg/mL | MIC (Neisseria gonorrhoeae [3]): > 32 µg/mL | MIC (Neisseria gonorrhoeae [4]): > 32 µg/mL | MIC (Neisseria gonorrhoeae [5]): 16 µg/mL (≈ 48.3 µM) | MIC (Neisseria gonorrhoeae [6]): 12 µg/mL (≈ 36.2 µM) | MIC (Neisseria gonorrhoeae [7]): 3 µg/mL (≈ 9.05 µM) | MIC (Neisseria gonorrhoeae [8]): 3 µg/mL (≈ 9.05 µM) | MIC (Neisseria gonorrhoeae [9]): 0.016 µg/mL (≈ 0.0483 µM) | MIC (Neisseria gonorrhoeae [10]): 1.5 µg/mL (≈ 4.53 µM) | MIC (Neisseria gonorrhoeae [11]): 32 µg/mL (≈ 96.6 µM) | MIC (Neisseria gonorrhoeae [12]): 16 µg/mL (≈ 48.3 µM) | MIC (Neisseria gonorrhoeae [13]): 8 µg/mL (≈ 24.1 µM) | MIC (Neisseria gonorrhoeae [14]): 8 µg/mL (≈ 24.1 µM) | MIC (Neisseria gonorrhoeae [15]): 2 µg/mL (≈ 6.04 µM) | MIC (Neisseria gonorrhoeae [16]): 2 µg/mL (≈ 6.04 µM) | MIC (Neisseria gonorrhoeae [17]): 2 µg/mL (≈ 6.04 µM) | MIC (Neisseria gonorrhoeae [18]): 1 µg/mL (≈ 3.02 µM) | MIC (Neisseria gonorrhoeae [19]): 1 µg/mL (≈ 3.02 µM) | MIC (Neisseria gonorrhoeae [20]): 0.5 µg/mL (≈ 1.51 µM) | MIC (Neisseria gonorrhoeae [21]): 0.38 µg/mL (≈ 1.15 µM) | MIC (Neisseria gonorrhoeae [22]): 0.25 µg/mL (≈ 0.754 µM) | MIC (Neisseria gonorrhoeae [23]): 0.25 µg/mL (≈ 0.754 µM) | MIC (Neisseria gonorrhoeae [24]): 0.125 µg/mL (≈ 0.377 µM) | MIC (Neisseria gonorrhoeae [25]): 0.125 µg/mL (≈ 0.377 µM) | MIC (Neisseria gonorrhoeae [26]): 0.125 µg/mL (≈ 0.377 µM) | MIC (Neisseria gonorrhoeae [27]): 0.023 µg/mL (≈ 0.0694 µM) | MIC (Neisseria gonorrhoeae [28]): 0.016 µg/mL (≈ 0.0483 µM) | MIC (Neisseria gonorrhoeae [29]): 0.016 µg/mL (≈ 0.0483 µM) | MIC (Neisseria gonorrhoeae [30]): 0.016 µg/mL (≈ 0.0483 µM) | MIC (Neisseria gonorrhoeae [31]): 0.5 µg/mL (≈ 1.51 µM) | MIC (Neisseria gonorrhoeae [32]): > 32 µg/mL | MIC (Neisseria gonorrhoeae [33]): > 32 µg/mL | MIC (Neisseria gonorrhoeae [34]): > 32 µg/mL | MIC (Neisseria gonorrhoeae [35]): > 32 µg/mL | MIC (Neisseria gonorrhoeae [36]): 4 µg/mL (≈ 12.1 µM)
